Test results taken from patent US6914045B2, “Glycopeptide antibiotics” (Wyeth Holdings Corporation, priority 2001, dated 2005).

Assays:
Test in all cases: in vitro antibacterial evaluation, MIC by broth dilution
Type in all cases: cell-based
Staphylococcus sp. = conditions: broth dilution, 18 hours at 35° C.
How it was run: (§1)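 MIC, the lowest antibiotic concentration preventing growth, was read across 64-0.06 μg/mL with 5×10^5 CFU/mL inoculum. Method followed NCCLS M7-A2 broth dilution using Mueller-Hinton II; Gram-positive strains covered recent methicillin-, penicillin- and/or vancomycin-resistant clinical isolates.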

Enterococcus sp. = conditions: broth dilution, 18 hours at 35° C.
How it was run: as §1

Escherichia coli = conditions: 18 hours at 35° C.
How it was run: as §1

Streptococcus sp. = conditions: broth dilution, 18 hours at 35° C.
How it was run: as §1

N=C1NCC(C(O)C2NC(=O)C(Cc3ccc(OC4OC(CO)C(OC5OC(CO)C(O)C6OC7(OC56)C5CC6CC(C5)CC7C6)C(O)C4O)cc3)NC(=O)C(CC3CCCCC3)NC(=O)CNC(=O)C(CO)NC(=O)C(C(O)C3CNC(=N)N3C3OC(CO)C(O)C(O)C3O)NC2=O)N1 (centres unmarked) [Example 106a, Cyclo[3-cyclohexylalanyl-O-[4-O-[2,3-O-(2-adamantylidene)hexopyranosyl]hexopyranosyl]-tyrosyl-3-(2-iminoimidazolidin-4-yl)seryl-3-(3-hexopyranosyl-2-iminoimidazolidin-4-yl)-serylserylglycyl]]
0.12 µg/mL: MIC Streptococcus pneumoniae (ATCC 6301) (Streptococcus sp.; Streptococcus pneumoniae (ATCC 6301)) | MIC Streptococcus pneumoniae (ATCC 6301) (Streptococcus sp.; strain ATCC 6301)
1 µg/mL: MIC Coagulase Negative Staphylococcus (GC 4548) (Staphylococcus sp.) | MIC Coagulase Negative Staphylococcus (GC 4549) (Staphylococcus sp.) | MIC Coagulase Negative Staphylococcus (GC 4548) (Staphylococcus sp.; strain GC 4548) | MIC Coagulase Negative Staphylococcus (GC 4549) (Staphylococcus sp.; strain GC 4549)
<0.06 µg/mL: MIC Streptococcus pneumoniae (GC 1894) (Streptococcus sp.; Streptococcus pneumoniae (GC 1894)) | MIC Streptococcus pneumoniae (GC 4565) (Streptococcus sp.; Streptococcus pneumoniae (GC 4565)) | MIC Streptococcus pneumoniae (GC 1894) (Streptococcus sp.; strain GC 1894) | MIC Streptococcus pneumoniae (GC 4565) (Streptococcus sp.; strain GC 4565)
4 µg/mL: MIC Staphylococcus aureus (GC 4544) (Staphylococcus sp.) | MIC Staphylococcus aureus (GC 4544) (Staphylococcus sp.; strain GC 4544) | MIC Enterococcus avium (GC 4558) (Enterococcus sp.; Enterococcus avium (GC 4558)) | MIC Enterococcus faecalis (GC 2242) (Enterococcus sp.; Enterococcus faecalis (GC 2242)) | MIC Enterococcus faecalis (GC 2691) (Enterococcus sp.; Enterococcus faecalis (GC 2691)) | MIC Enterococcus faecalis (GC 4552) (Enterococcus sp.; Enterococcus faecalis (GC 4552)) | MIC Enterococcus faecalis (GC 4553) (Enterococcus sp.; Enterococcus faecalis (GC 4553)) | MIC Enterococcus faecalis (GC 6189) (Enterococcus sp.; Enterococcus faecalis (GC 6189)) | MIC Enterococcus faecium (GC 2243) (Enterococcus sp.; Enterococcus faecium (GC 2243)) | MIC Enterococcus faecalis (GC 2242) (Enterococcus sp.; strain GC 2242) | MIC Enterococcus faecium (GC 2243) (Enterococcus sp.; strain GC 2243) | MIC Enterococcus faecalis (GC 2691) (Enterococcus sp.; strain GC 2691) | MIC Enterococcus faecalis (GC 4552) (Enterococcus sp.; strain GC 4552) | MIC Enterococcus faecalis (GC 4553) (Enterococcus sp.; strain GC 4553) | MIC Enterococcus avium (GC 4558) (Enterococcus sp.; strain GC 4558) | MIC Enterococcus faecalis (GC 6189) (Enterococcus sp.; strain GC 6189)
0.25 µg/mL: MIC Streptococcus agalactiae (GC 4564) (Streptococcus sp.; Streptococcus agalactiae (GC 4564)) | MIC Streptococcus pyogenes (GC 4563) (Streptococcus sp.; Streptococcus pyogenes (GC 4563)) | MIC Streptococcus pyogenes (GC 4563) (Streptococcus sp.; strain GC 4563) | MIC Streptococcus agalactiae (GC 4564) (Streptococcus sp.; strain GC 4564)
2 µg/mL: MIC Coagulase Negative Staphylococcus (GC 4547) (Staphylococcus sp.) | MIC Coagulase Negative Staphylococcus (GC 4551) (Staphylococcus sp.) | MIC Staphylococcus aureus (ATCC 29213) (Staphylococcus sp.) | MIC Staphylococcus aureus (GC 1131) (Staphylococcus sp.) | MIC Staphylococcus aureus (GC 3051) (Staphylococcus sp.) | MIC Staphylococcus aureus (GC 3053) (Staphylococcus sp.) | MIC Staphylococcus aureus (GC 4541) (Staphylococcus sp.) | MIC Staphylococcus aureus (GC 4542) (Staphylococcus sp.) | MIC Staphylococcus aureus (GC 4545) (Staphylococcus sp.) | MIC Staphylococcus aureus-SMITH (GC 4543) (Staphylococcus sp.) | MIC Staphylococcus haemolyticus (GC 4546) (Staphylococcus sp.) | MIC Staphylococcus haemolyticus (GC 4546) (Staphylococcus sp.; strain GC 4546) | MIC Coagulase Negative Staphylococcus (GC 4547) (Staphylococcus sp.; strain GC 4547) | MIC Coagulase Negative Staphylococcus (GC 4551) (Staphylococcus sp.; strain GC 4551) | MIC Staphylococcus aureus-SMITH (GC 4543) (Staphylococcus sp.; strain SMITH GC 4543) | MIC Staphylococcus aureus (ATCC 29213) (Staphylococcus sp.; strain ATCC 29213) | MIC Staphylococcus aureus (GC 1131) (Staphylococcus sp.; strain GC 1131) | MIC Staphylococcus aureus (GC 3051) (Staphylococcus sp.; strain GC 3051) | MIC Staphylococcus aureus (GC 3053) (Staphylococcus sp.; strain GC 3053) | MIC Staphylococcus aureus (GC 4541) (Staphylococcus sp.; strain GC 4541) | MIC Staphylococcus aureus (GC 4542) (Staphylococcus sp.; strain GC 4542) | MIC Staphylococcus aureus (GC 4545) (Staphylococcus sp.; strain GC 4545) | MIC Enterococcus faecium (GC 4557) (Enterococcus sp.; Enterococcus faecium (GC 4557)) | MIC Enterococcus faecium (GC 4557) (Enterococcus sp.; strain GC 4557) | MIC Escherichia coli (GC 4560) (Escherichia coli; strain GC 4560)
32 µg/mL: MIC Escherichia coli (ATCC 25922) (Escherichia coli; strain ATCC 25922) | MIC Escherichia coli (GC 4559) (Escherichia coli; strain GC 4559)
8 µg/mL: MIC Enterococcus faecalis (ATCC 29212) (Enterococcus sp.; Enterococcus faecalis (ATCC 29212)) | MIC Enterococcus faecalis (GC 3059) (Enterococcus sp.; Enterococcus faecalis (GC 3059)) | MIC Enterococcus faecalis (GC 4554) (Enterococcus sp.; Enterococcus faecalis (GC 4554)) | MIC Enterococcus faecium (GC 4556) (Enterococcus sp.; Enterococcus faecium (GC 4556)) | MIC Enterococcus faecalis (ATCC 29212) (Enterococcus sp.; strain ATCC 29212) | MIC Enterococcus faecalis (GC 3059) (Enterococcus sp.; strain GC 3059) | MIC Enterococcus faecalis (GC 4554) (Enterococcus sp.; strain GC 4554) | MIC Enterococcus faecium (GC 4556) (Enterococcus sp.; strain GC 4556)
